This note sets out measurements from US11214803B2, “Modulators of YAP1 expression” (Ionis Pharmaceuticals, Inc., priority 2019, dated 2022).

The data set relates to Yap1 mRNA. The data set is described as follows: Dose-dependent inhibition of human Yap1 in A-431 cells (Example 8, 10,000 cells per well, RTS4814). The format is cell-based. Conditions: free uptake, approximately 48 hours, RTS4814; for Yap1 mRNA, % UTC: A-431 cells, 10,000 cells per well; for IC50: A-431 cells, linear regression on log/linear plot. How it is done:
Modified oligonucleotides described in the studies above were tested at various doses in A-431 cells. Cultured A-431 cells at a density of 10,000 cells per well were treated using free uptake with modified oligonucleotides diluted to concentrations described in the tables below. After approximately 48 hours, Yap1 mRNA levels were measured as previously described using the Human Yap1 primer-probe set RTS4814. Yap1 mRNA levels were normalized to total RNA content, as measured by RIBOGREEN®. Results are presented in the tables below as percent control of the amount of Yap1 mRNA relative to untreated control cells (% UTC). IC50s were calculated using a linear regression on a log/linear plot of the data in excel.

Strand notation (5' to 3'): a small letter for the sugar, then the base; units joined by * are phosphorothioate-linked, units joined directly phosphodiester-linked; [ ] holds rarer units or linkages, { } end groups; capitals alone tell only the bases. k = constrained ethyl (cEt); [5mC] = 5-methylcytosine; d = 2'-deoxy (DNA)

The IC50 is the concentration that gives 50% inhibition. Higher therefore signals lower potency. Substance “1074411 (kT*kG*kT*dG*dA*dA*dA*dG*dA*dG*dG*dT*d[5mC]*kA*kG*k[5mC]; antisense) [compound 1074411]” returned a 50% inhibitory concentration (IC50) of less than 20 nM. The “Yap1 mRNA, % UTC” value (31.3 nM) is 47 % UTC. Besides, the “Yap1 mRNA, % UTC” value (125.0 nM) came out at 20 % UTC. For the same substance, the “Yap1 mRNA, % UTC” value (500.0 nM) was 8 % UTC. Further, the “Yap1 mRNA, % UTC” value (2000.00 nM) amounted to 6 % UTC.
On the same counts, the results for “1075785 (k[5mC]*kA*kT*dT*dT*dT*dA*dT*dA*dG*dG*dG*d[5mC]*k[5mC]*kA*kT; antisense) [compound 1075785]” are less than 20 nM, 29 % UTC, 7 % UTC, 3 % UTC and 3 % UTC.
The corresponding values for “1075143 (k[5mC]*k[5mC]*kT*dT*dA*dT*dT*dA*dG*dT*d[5mC]*dA*dG*kT*kT*k[5mC]; antisense) [compound 1075143]” are less than 20 nM, 59 % UTC, 21 % UTC, 5 % UTC and 3 % UTC.
On the same counts, the results for “1074368 (kG*kA*kT*dA*dG*dT*dA*dT*d[5mC]*dA*d[5mC]*d[5mC]*dT*kG*kT*kA; antisense) [compound 1074368]” are 100 nM, 67 % UTC, 34 % UTC, 15 % UTC and 10 % UTC.
In turn, “1074627 (DNA k[5mC]*k[5mC]*kT*dG*dT*dT*dA*dT*dG*dA*dA*d[5mC]*d[5mC]*k[5mC]*kT*kT; antisense) [compound 1074627]” yielded a 50% inhibitory concentration (IC50) of less than 20 nM. The “Yap1 mRNA, % UTC” value (31.3 nM) was found to be 17 % UTC. The “Yap1 mRNA, % UTC” value (125.0 nM) is 5 % UTC. For the same substance, the “Yap1 mRNA, % UTC” value (500.0 nM) came to 3 % UTC. For the setting “2000.00 nM”, the “Yap1 mRNA, % UTC” value was 3 % UTC.
In turn, “1076483 (kA*k[5mC]*kG*dG*dG*dA*dA*dA*dT*d[5mC]*dA*dT*dA*kT*kA*kG; antisense) [compound 1076483]” displayed an IC50 of 40 nM. For the setting “31.3 nM”, the “Yap1 mRNA, % UTC” value came to 63 % UTC. Moreover, where the note is “125.0 nM”, the “Yap1 mRNA, % UTC” value came out at 27 % UTC. Besides, the “Yap1 mRNA, % UTC” value (500.0 nM) is listed as 11 % UTC. Besides, the “Yap1 mRNA, % UTC” value (2000.00 nM) was determined as 6 % UTC.
The corresponding values for “1074245 (antisense kA*kG*kA*dA*dG*dT*dA*dT*d[5mC]*dT*d[5mC]*dT*dG*kA*k[5mC]*k[5mC]) [compound 1074245]” are less than 20 nM, 47 % UTC, 21 % UTC, 8 % UTC and 5 % UTC.
On the same counts, the results for “1076491 (kA*kG*k[5mC]*d[5mC]*dA*dA*dA*dA*dT*dA*dG*dG*dT*kG*kA*kG; antisense) [compound 1076491]” are 100 nM, 81 % UTC, 45 % UTC, 21 % UTC and 10 % UTC.
The corresponding values for “1074566 (DNA CACTGAATTCCAATCG; 3-10-3 cEt gapmer, chemistry not fully specified) [compound 1074566]” are less than 20 nM, 41 % UTC, 12 % UTC, 5 % UTC and 3 % UTC.
As for “1076386 (antisense kA*kG*kT*dT*dA*dT*dA*dA*d[5mC]*dA*dG*dT*dG*kT*kA*kA) [compound 1076386]”, 40 nM corresponded to half-maximal inhibition (IC50). The “Yap1 mRNA, % UTC” value (31.3 nM) is recorded as 61 % UTC. The “Yap1 mRNA, % UTC” value (125.0 nM) is 30 % UTC. Besides, the “Yap1 mRNA, % UTC” value (500.0 nM) stood at 11 % UTC. In addition, for the setting “2000.00 nM”, the “Yap1 mRNA, % UTC” value came out at 5 % UTC.
On the same counts, the results for “1076486 (kG*kA*kA*dA*d[5mC]*dG*dA*dA*dA*d[5mC]*dG*dG*dG*kA*kA*kA; antisense) [compound 1076486]” are 100 nM, 84 % UTC, 45 % UTC, 16 % UTC and 6 % UTC.
With “1076067 (kG*k[5mC]*kA*dT*dA*dT*dA*dA*dG*dA*dT*dG*dT*kT*kT*kG; antisense) [compound 1076067]”, the IC50 was less than 20 nM. Also, the “Yap1 mRNA, % UTC” value (31.3 nM) amounted to 45 % UTC. Besides, under “125.0 nM”, the “Yap1 mRNA, % UTC” value turned out to be 13 % UTC. Moreover, where the note is “500.0 nM”, the “Yap1 mRNA, % UTC” value is listed as 5 % UTC. Under “2000.00 nM”, the “Yap1 mRNA, % UTC” value was found to be 4 % UTC.
Take “1074315 (antisense kG*kA*kT*dT*dG*dA*dT*dA*dT*dT*d[5mC]*d[5mC]*dG*k[5mC]*kA*kT) [compound 1074315]”: the half-inhibitory concentration (IC50) is 30 nM. The “Yap1 mRNA, % UTC” value (31.3 nM) was found to be 57 % UTC. In addition, the “Yap1 mRNA, % UTC” value (125.0 nM) was found to be 26 % UTC. The “Yap1 mRNA, % UTC” value (500.0 nM) is recorded as 9 % UTC. Under “2000.00 nM”, the “Yap1 mRNA, % UTC” value was 5 % UTC.
The substance “1075778 (k[5mC]*kA*kT*dT*dT*dA*dT*dA*d[5mC]*d[5mC]*dA*dG*dG*k[5mC]*kA*k[5mC]; antisense) [compound 1075778]” showed a concentration for half-maximal inhibition (IC50) of 30 nM. The “Yap1 mRNA, % UTC” value (31.3 nM) is given as 56 % UTC. Besides, the “Yap1 mRNA, % UTC” value (125.0 nM) was found to be 29 % UTC. Under “500.0 nM”, the “Yap1 mRNA, % UTC” value is reported as 10 % UTC. Further, the “Yap1 mRNA, % UTC” value (2000.00 nM) was 5 % UTC.
Substance “1076459 (k[5mC]*kT*kT*d[5mC]*dA*dA*d[5mC]*dA*dA*dG*dA*d[5mC]*dA*kG*kG*kT; antisense) [compound 1076459]” came in with a half-inhibitory concentration (IC50) of 100 nM. For the same substance, the “Yap1 mRNA, % UTC” value (31.3 nM) worked out at 67 % UTC. Moreover, under “125.0 nM”, the “Yap1 mRNA, % UTC” value is 32 % UTC. The “Yap1 mRNA, % UTC” value (500.0 nM) stood at 13 % UTC. In addition, the “Yap1 mRNA, % UTC” value (2000.00 nM) was 7 % UTC.
In turn, “1074852 (kA*kA*kT*dT*dG*dT*dT*dA*dT*dG*dA*dT*dA*kG*kG*k[5mC]; antisense) [compound 1074852]” came in with an IC50 of less than 20 nM. The “Yap1 mRNA, % UTC” value (31.3 nM) is 36 % UTC. For the same substance, the “Yap1 mRNA, % UTC” value (125.0 nM) amounted to 11 % UTC. Also, for the setting “500.0 nM”, the “Yap1 mRNA, % UTC” value is listed as 4 % UTC. Moreover, the “Yap1 mRNA, % UTC” value (2000.00 nM) is recorded as 4 % UTC.
“1075146 (kG*kT*kA*dT*dT*dA*dA*dG*dG*dG*dA*dT*dT*kT*kT*k[5mC]; antisense) [compound 1075146]” gave an IC50 of 100 nM. Besides, the “Yap1 mRNA, % UTC” value (31.3 nM) was 67 % UTC. Besides, the “Yap1 mRNA, % UTC” value (125.0 nM) stood at 38 % UTC. The “Yap1 mRNA, % UTC” value (500.0 nM) came out at 16 % UTC. For the same substance, the “Yap1 mRNA, % UTC” value (2000.00 nM) is 8 % UTC.
On the same counts, the results for “1074726 (antisense kG*kG*kT*dA*dT*dA*dA*d[5mC]*dT*dG*dG*dG*d[5mC]*kA*kA*kA) [compound 1074726]” are less than 20 nM, 26 % UTC, 8 % UTC, 4 % UTC and 3 % UTC.
“1076388 (antisense kG*kA*kA*dA*dT*dA*dT*dT*d[5mC]*dG*dA*dG*dA*kA*kG*kA) [compound 1076388]” yielded an IC50 of 100 nM. The “Yap1 mRNA, % UTC” value (31.3 nM) worked out at 87 % UTC. The “Yap1 mRNA, % UTC” value (125.0 nM) is 40 % UTC. Besides, the “Yap1 mRNA, % UTC” value (500.0 nM) was 13 % UTC. Moreover, the “Yap1 mRNA, % UTC” value (2000.00 nM) was determined as 6 % UTC.
On the same counts, the results for “1076256 (kT*kT*kA*dT*dT*dT*dA*dG*dG*d[5mC]*d[5mC]*d[5mC]*d[5mC]*kA*kT*kA; antisense) [compound 1076256]” are 100 nM, 68 % UTC, 33 % UTC, 11 % UTC and 6 % UTC.
The corresponding values for “1075137 (kG*kA*kT*dT*dA*dA*dA*dT*dA*d[5mC]*dT*dG*dA*k[5mC]*k[5mC]*kA; antisense) [compound 1075137]” are 100 nM, 70 % UTC, 22 % UTC, 8 % UTC and 4 % UTC.
On the same counts, the results for “1075233 (kG*kT*kA*dA*dT*dT*dT*dA*dT*d[5mC]*dA*dG*d[5mC]*k[5mC]*kA*kT; antisense) [compound 1075233]” are less than 20 nM, 45 % UTC, 12 % UTC, 5 % UTC and 3 % UTC.
The substance “1076298 (kG*kT*kT*dA*dT*dA*dA*dA*dG*dA*d[5mC]*d[5mC]*d[5mC]*kA*kA*kT; antisense) [compound 1076298]” returned an IC50 of 200 nM. In addition, under “31.3 nM”, the “Yap1 mRNA, % UTC” value is listed as 92 % UTC. Further, under “125.0 nM”, the “Yap1 mRNA, % UTC” value is 58 % UTC. Besides, the “Yap1 mRNA, % UTC” value (500.0 nM) was found to be 29 % UTC. For the same substance, for the setting “2000.00 nM”, the “Yap1 mRNA, % UTC” value is 18 % UTC.
The corresponding values for “1075819 (kG*kT*kA*dT*dA*dT*d[5mC]*d[5mC]*dG*dT*dT*d[5mC]*dT*k[5mC]*kA*kT; antisense) [compound 1075819]” are less than 20 nM, 48 % UTC, 18 % UTC, 7 % UTC and 5 % UTC.
